What was measured:
[1] = test system: experimental colitis induced by TNB (2,4,6-trinitrobenzenesulphonic acid); assay: Rat model of experimental colitis induced by TNB, macroscopic evaluation; format: in vivo; parameters: Wet Weight (colon): unit not given beside the values; details: Wistar rat; for Wet Weight (colon) / Sample 2 × 6 mm / Score (0-10) / Weight/mm: Mean ± SEM
Description: The therapeutic potential for the treatment of ulcerative colitis of IEC01 at 2.5 and 5 mg/kg and IES01 at 2.5 mg/kg, was evaluated after their administration by oral route during 14 days (7 days of preventive treatment and 7 days of therapeutic treatment) using the rat model of experimental colitis induced by TNB (2,4,6-trinitrobenzenesulphonic acid). As reference parameters, the body weight, wet colon weight and score macroscopic evaluation were evaluated after 24 hours and after 7 days of the intraluminal administration of TNB in the colon. […] The inflammatory response is recognised by the presence of ulcerative fissures, faecal shatters and inflammation of bowel wall. A chronic inflammatory response was observed 7 days after the administration. An erratic response with lineal or punctual ulcers, necrosis, faecal shatters, reduction of colonic lumen, granulomas and peritoneal adherence was observed.

[2] = test system: phospholipase A2 (PLA2); assay: [3H]arachidonic acid release as assay for PLA2 activity; format: cell-based; details: FIG. 10
Description: Measurement of arachidonic acid release. Arachidonic acid release was measured as an assay for phospholipase A2 (PLA2) activity, because this enzyme activity constitutes the major pathway controlling arachidonic acid release. Cells (5×10^5/ml) were labeled overnight with 0.1 μCi of [^3H]arachidonic acid/ml in RPMI-1640 culture medium containing 10% fetal calf serum. Then cells were washed four times with culture medium, and cells were resuspended in […] culture medium in the absence of serum in the absence (control) or in the presence of distinct agents for the times indicated in the respective figures. After this period, cells were pelleted by centrifugation and supernatants were transferred to scintillation vials and counted for radioactivity. Results are shown as cpm of labelled arachidonic acid released to the extracellular medium.

[3] = test system: cytosolic PLA2; assay: Semiquantitative RT-PCR of cytosolic PLA2 expression in HL-60 cells; format: cell-based, human; details: HL-60 cells (FIG. 9)
Description: Cell culture. Human promyelocytic HL-60 cells and promonocytic U937 cells were grown in RPMI-1640 culture medium supplemented with 10% (v/v) heat-inactivated fetal calf serum, 2 mM L-glutamine, 100 units/ml penicillin and 24 μg/ml gentamicin. Mouse 3T3 fibroblasts were grown in Dulbecco's modified Eagle's medium (DMEM) supplemented with 10% (v/v) heat-inactivated fetal calf serum, 2 mM L-glutamine, 100 units/ml penicillin and 24 μg/ml gentamicin. Cells were incubated at 37° C. in a humidified atmosphere at 5% CO2 and 95% air.
Reverse transcriptase polymerase chain reaction (RT-PCR). Total RNA was extracted from human neutrophils and cell lines using TRIZOL reagent (GIBCO-BRL) following the manufacturer's instructions. RNA preparations were carefully checked by gel electrophoresis and found to be free of DNA contamination. For the RT reaction, total RNA (10 μg) was primed with oligo-dt and reverse-transcribed into cDNA with 30 units of M-MLV reverse transcriptase from Promega according to manufacturer's instructions in a final volume of 20 μL. The mixture was incubated at 37° C. for 90 min. The generated cDNA was used for the semi-quantitative RT-PCR and the β-actin gene was used as an internal control. […]

[4] = test system: neutrophils; assay: Toxicity for neutrophils; format: cell-based, human
Source text: Isolation and treatment of neutrophils.

[5] = 2.5 mg/Kg p.o., after 24 hours of intraluminal administration
[6] = 2.5 mg/Kg p.o., after 7 days of intraluminal administration
[7] = 5.0 mg/Kg p.o., after 24 hours of intraluminal administration
[8] = 5.0 mg/Kg p.o., after 7 days of intraluminal administration

CCCCCCCCCCCCCCCCCCOCC(COP(=O)([O-])OCC[N+](C)(C)C)OC (centres unmarked) [IEC01, Edelfosine]
% (inhibition, Sample 2 × 6 mm) [1, 5]: 14.7% | % (inhibition, Score) [1, 5]: 8.6% | % (inhibition, Weight/mm) [1, 5]: 35.2% | % (inhibition, Wet Weight) [1, 5]: 35.1% | Wet Weight (colon) ([1]; 2.5 mg/Kg p.o., after 24 hours of intraluminal administration in the colon): 1.689 ± 0.15 | Sample 2 × 6 mm [1, 5]: 373.12 ± 48.12 mg | Score (0-10) [1, 5]: 5.2 ± 0.73 | Weight/mm [1, 5]: 0.187 ± 0.02 | % (inhibition, Sample 2 × 6 mm) [1, 6]: 17.9% | % (inhibition, Weight/mm) [1, 6]: 13.3% | % (inhibition, Wet Weight) [1, 6]: 13.4% | Wet Weight (colon) ([1]; 2.5 mg/Kg p.o., after 7 days of intraluminal administration in the colon): 1.354 ± 0.14 | % (inhibition, Score) ([1]; 2.5 mg/Kg p.o., after 7 days of intraluminal administration, 2.5 mg/kg): 78,6% | Sample 2 × 6 mm [1, 6]: 299.62 ± 75.58 mg | Score (0-10) [1, 6]: 1.2 ± 0.58 | Weight/mm [1, 6]: 0.150 ± 0.00 | % (inhibition, Sample 2 × 6 mm) [1, 7]: 61.7% | % (inhibition, Score) [1, 7]: 42.9% | % (inhibition, Weight/mm) [1, 7]: 77.3% | % (inhibition, Wet Weight) [1, 7]: 77.4% | Wet Weight (colon) ([1]; 5.0 mg/Kg p.o., after 24 hours of intraluminal administration in the colon): 1.412 ± 0.06 | Sample 2 × 6 mm [1, 7]: 301.10 ± 18.95 mg | Score (0-10) [1, 7]: 4.0 ± 0.32 | Weight/mm [1, 7]: 0.157 ± 0.00 | % (inhibition, Sample 2 × 6 mm) [1, 8]: 71.4% | % (inhibition, Weight/mm) [1, 8]: 63.0% | % (inhibition, Wet Weight) [1, 8]: 63.0% | Wet Weight (colon) ([1]; 5.0 mg/Kg p.o., after 7 days of intraluminal administration in the colon): 1.113 ± 0.14 | % (inhibition, Score) ([1]; 5.0 mg/Kg p.o., after 7 days of intraluminal administration, 5 mg/kg): 71,4% | Sample 2 × 6 mm [1, 8]: 272.14 ± 53.65 mg | Score (0-10) [1, 8]: 1.4 ± 0.40 | Weight/mm [1, 8]: 0.124 ± 0.01 | PLA2 activity, as measured by [3H]arachidonic acid release [2]: able to stimulate | mRNA expression of cytosolic PLA2 [3]: did not affect | concentrations toxic for neutrophils [4]: higher than 50 μg/ml

— patent US6583127B1, “Use of etherlysophospholipids as antiinflammatory agents” (Inkeysa. SA, priority 1998, dated 2003)
